Measurements taken from ChEMBL document CHEMBL4312002, “Impact of hydroxy moieties at the benzo[7]annulene ring system of GluN2B ligands: Design, synthesis and biological evaluation” (Bioorg Med Chem, 2019).

What was measured:
[1] = Displacement of [3H]ifenprodil from GluN1A/GluN2B (unknown origin) expressed in mouse L(tk-) cell membranes after 120 mins by solid scintillation counting method; set-up: species or system Homo sapiens
[2] = Cytoprotection against glutamate/glycine-induced cytotoxicity against mouse LTK cells expressing GluN1a/GluN2B preincubated 30 mins followed by glutamate/glycine addition and measured after 6 hrs by LDH assay; format: functional, cell-based
[3] = Retention time of compound in C57BL/6 mouse liver microsomes at 25 uM by LC-qTOF/MS analysis; format: ADME, Microsome
[4] = Drug metabolism in C57BL/6 mouse liver microsomes assessed as glucuronide metabolite formation at 25 uM incubated for 90 mins in presence of phase 1 and 2 cofactors NADPH and UDPGA by LC-qTOF/MS analysis; format: ADME, Microsome; details: 1.5 h
[5] = species: Sus scrofa; assay: Displacement of [3H]-(+)-MK-801 from PCP binding site of NMDA receptor in pig brain cortex membranes at 1 uM after 120 mins by solid scintillation counting method relative to control; format: cell membranes
[6] = Drug metabolism in C57BL/6 mouse liver microsomes assessed as hydroxylation at aromatic ring at 25 uM incubated for 90 mins in presence of phase 1 cofactor NADPH by LC-qTOF/MS analysis; format: ADME, Microsome; details: 1.5 h
[7] = molecular target: Sigma non-opioid intracellular receptor 1 (Cavia porcellus, UniProt Q60492); assay: Displacement of [3H]-(+)-pentazocine from sigma1 receptor in guinea pig brain cortex membranes incubated for 120 mins by solid scintillation counting method; format: cell membranes
Chain of Sigma non-opioid intracellular receptor 1 (Q60492 whole entry): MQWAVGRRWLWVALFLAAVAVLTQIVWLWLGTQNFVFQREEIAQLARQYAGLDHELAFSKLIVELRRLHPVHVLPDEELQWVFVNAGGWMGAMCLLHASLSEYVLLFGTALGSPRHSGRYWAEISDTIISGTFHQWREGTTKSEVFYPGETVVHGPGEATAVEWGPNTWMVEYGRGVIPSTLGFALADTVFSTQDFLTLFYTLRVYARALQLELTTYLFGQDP

[8] = Drug metabolism in C57BL/6 mouse liver microsomes assessed as hydroxylation at aliphatic and aromatic ring at 25 uM incubated for 90 mins in presence of phase 1 cofactor NADPH by LC-qTOF/MS analysis; format: ADME, Microsome; details: 1.5 h
[9] = molecular target: T1, Sigma intracellular receptor 2 (Rattus norvegicus, UniProt Q5U3Y7); assay: Displacement of [3H]di-o-tolylguanidine from sigma2 receptor in rat liver membranes measured after 120 mins by solid scintillation counting method; format: cell membranes
T1 sequence (Q5U3Y7 whole entry): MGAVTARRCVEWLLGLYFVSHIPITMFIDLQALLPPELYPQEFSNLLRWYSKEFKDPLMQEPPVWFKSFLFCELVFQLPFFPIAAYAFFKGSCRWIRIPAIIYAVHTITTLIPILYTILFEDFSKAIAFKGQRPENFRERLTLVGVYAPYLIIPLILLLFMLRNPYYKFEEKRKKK

[10] = Drug metabolism in C57BL/6 mouse liver microsomes assessed as hydroxylation at aliphatic ring at 25 uM incubated for 90 mins in presence of phase 1 cofactor NADPH by LC-qTOF/MS analysis; format: ADME, Microsome; details: 1.5 h
[11] = Drug metabolism in C57BL/6 mouse liver microsomes assessed as (2S,3S,4S,5R)-3,4,5-trihydroxy-6-(7-(methyl(3-phenylpropyl)amino)-6,7,8,9-tetrahydro-5H-benzo[7]annulen-5-yloxy)tetrahydro-2H-pyran-2-carboxylic acid formation at 25 uM incubated for 90 mins in presence of phase 1 and 2 cofactors NADPH and UDPGA by LC-qTOF/MS analysis; format: ADME, Microsome; details: 1.5 h
[12] = in vitro; details: C57BL/6, mouse, liver microsomes
Description: Metabolic stability in C57BL/6 mouse liver microsomes assessed as parent compound remaining at 25 uM incubated for 90 mins in presence of NADPH by LC-qTOF/MS analysis

[13] = Cytoprotection against glutamate/glycine-induced cytotoxicity against mouse LTK cells expressing GluN1a/GluN2B assessed as inhibition of cell growth measured after 12 hrs by LDH assay; format: functional, cell-based
[14] = Cytoprotection against glutamate/glycine-induced cytotoxicity against mouse LTK cells expressing GluN1a/GluN2B at 10 uM measured after 30 mins by LDH assay relative to control; format: functional
[15] = molecular target: Sigma non-opioid intracellular receptor 1 (Cavia porcellus) (UniProt Q60492); assay: Displacement of [3H]-(+)-pentazocine from sigma1 receptor in guinea pig brain cortex membranes at 1 uM incubated for 120 mins by solid scintillation counting method relative to control; format: cell membranes
Chain of Sigma non-opioid intracellular receptor 1 (Cavia porcellus) (Q60492 whole entry): as the sequence (Q60492 whole entry) above

[16] = Retention time of (2S,3S,4S,5R)-3,4,5-trihydroxy-6-(7-(methyl(3-phenylpropyl)amino)-6,7,8,9-tetrahydro-5H-benzo[7]annulen-5-yloxy)tetrahydro-2H-pyran-2-carboxylic acid metabolite in C57BL/6 mouse liver microsomes at 25 uM by LC-qTOF/MS analysis; format: ADME, Microsome

inhibition [5] [%]	Ki [7] [nM]	Ki [9] [nM]	Structure (SMILES)	Ki [1] [nM]	IC50 [2] [nM]	Activity [14] [%]	other results
			CC(C(O)c1ccc(O)cc1)N1CCC(Cc2ccccc2)CC1 (stereo unspecified) [IFENPRODIL]	10			
			Oc1ccc2c(c1)CCC(NCCCc1ccccc1)CC2 (stereo unspecified)	28	> 10000		
0	39	35	CN(CCCc1ccccc1)C1CCc2ccccc2C(O)C1 (mixture of isomers)	49	580		Retention_time [3]: 5.1 min; Drug metabolism [4]: Metabolite_Detected; Drug metabolism [6]: Metabolite_Detected; Drug metabolism [8]: Metabolite_Detected; Drug metabolism [10]: Metabolite_Detected; Drug metabolism [11]: Metabolite_Detected; remaining at 1.5 h, 25 µM [12]: 17%
			COc1ccc2c(c1)CC[C@@H](NCCCc1ccccc1)C[C@H]2O (racemic)	16			IC50 [13]: 12 nM
0	1300	100	OC1Cc2ccccc2CCC1NCCCc1ccccc1 (mixture of isomers)	380		22	
			c1ccc(CCCNC2CCc3ccccc3CC2)cc1	16		29	
			OC(CN1CCC(Cc2ccc(F)cc2)CC1)c1ccc(Cl)cc1 (stereo unspecified) [ELIPRODIL]	13			
14		630	OC1c2ccccc2CCC(NCCCc2ccccc2)C1O (mixture of isomers)	2000		41	inhibition [15]: 17%
			C[C@@H](CN1CCC(Cc2ccccc2)CC1)[C@@H](O)c1ccc(O)cc1	170	13		
			COc1ccc2c(c1)CCC(NCCCc1ccccc1)CC2 (stereo unspecified)	10			IC50 [13]: 29 nM
			Oc1ccc2c(c1)CCC(NCCCCc1ccccc1)CC2 (stereo unspecified)	21	3000		
0	160	28	OC1CC(NCCCc2ccccc2)CCc2ccccc21 (mixture of isomers)	77	1600		
0	430	100	OC1Cc2ccccc2CCC1NCCCCc1ccccc1 (mixture of isomers)	270		0	
			CN(CCCc1ccccc1)C1CCc2ccccc2C(O[C@@H]2O[C@H](C(=O)O)[C@@H](O)[C@H](O)[C@H]2O)C1 (stereo partly specified)				Retention_time [16]: 4.8 min
0	140	100	OC1CC(NCCCCc2ccccc2)CCc2ccccc21 (mixture of isomers)			12	
0	33	66	CN(CCCCc1ccccc1)C1CCc2ccccc2C(O)C1 (mixture of isomers)	64		10	
